Measured values reported in patent publication US12612368B2 (Remedy Plan, Inc., priority 2019, dated 2026).
Where two headings read alike, the source gives them in different places.

Key:
[1] = target: T1, NAMPT (Homo sapiens, UniProt P43490); assay: NAMPT Activity Assay (Abcam #ab221819); format: biochemical; conditions: purified NAMPT, two-step reaction, OD450 nm; percent inhibition vs no drug; compound concentration not stated
T1 construct: purchased Abcam ab221819

[2] = system: MV-4-11 cells; assay: Cell viability in MV-4-11 cells (CellTiter Glo2); format: cell-based; conditions: Homo sapiens, MV4-11, 96 h, 8-point dose response, 4 days
Experimental: Approximately 10,000 MV-4-11 cells per well of a 96-well plate were treated with DMSO (no drug control) or each compound in Tables E1 and E2 in an 8-point dose response for 4 days, Cell viability was measured using CellTiter Glo2. The ICse of each compound was determined using CDD Vault.

[3] = CellTiter Glo2 (Table E2), read-out: MV-4-11 Cell Viability, MV-4-11 IC50
[4] = CellTiter Glo2 (Table E1), read-out: MV-4-11 IC50

T1 sequence (P43490 whole entry): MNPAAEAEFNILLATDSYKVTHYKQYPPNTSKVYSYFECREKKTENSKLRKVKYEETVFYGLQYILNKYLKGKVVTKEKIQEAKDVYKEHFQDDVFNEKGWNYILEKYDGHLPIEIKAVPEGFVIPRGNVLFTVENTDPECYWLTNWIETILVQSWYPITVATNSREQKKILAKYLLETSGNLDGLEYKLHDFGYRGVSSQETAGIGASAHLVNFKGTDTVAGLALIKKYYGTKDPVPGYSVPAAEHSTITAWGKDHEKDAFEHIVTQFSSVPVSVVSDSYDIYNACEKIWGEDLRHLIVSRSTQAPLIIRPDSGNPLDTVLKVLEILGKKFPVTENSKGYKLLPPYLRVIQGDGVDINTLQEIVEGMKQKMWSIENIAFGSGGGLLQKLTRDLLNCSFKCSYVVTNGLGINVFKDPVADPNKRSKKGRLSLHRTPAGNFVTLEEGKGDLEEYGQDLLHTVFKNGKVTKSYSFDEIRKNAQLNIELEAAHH

## CC(=O)N(CCC(F)(F)F)c1ccc(-c2ccc(C(=O)NCc3cccnc3C)cn2)cc1 [Compound I-499, 6-[4-[Acetyl(3,3,3-trifluoropropyl)amino]phenyl]-N-[(2-methyl-3-pyridyl)methyl]pyridine-3-carboxamide]
[1]
  NAMPT Inhibition Code: A (A = <33% inhibition)
[2]; [3]
  IC50: 3.99 µM

## CCN(C(C)=O)c1ccc(-c2ccc(C(=O)NCc3cccnc3)cn2)cc1C [Compound I-430, 6-[4-[acetyl(ethyl)amino]-3-methyl-phenyl]-N-(3-pyridylmethyl)pyridine-3-carboxamide]
[1]
  NAMPT Inhibition Code: B (B = ≥33 to <66% inhibition)
[2]; [4]
  IC50: 0.267 µM

## CC(=O)CC(=O)N(c1ccc(-c2ccc(C(=O)NCc3cccnc3C)cn2)cc1C)C(C)C [Compound I-497, 6-(4-(N-isopropyl-3-oxobutanamido)-3-methylphenyl)-N-((2-methylpyridin-3-yl)methyl)nicotinamide]
[1]
  NAMPT Inhibition Code: A (A = <33% inhibition)
[2]; [3]
  IC50: 5.72 µM

## CC(=O)N(c1ccc(-c2ccc(C(=O)NCc3cccnc3)cn2)cc1C)C(C)C [Compound I-495, 6-[4-[Acetyl(isopropyl)amino]-3-methyl-phenyl]-N-(3-pyridylmethyl)pyridine-3-carboxamide]
[1]
  NAMPT Inhibition Code: C (C = ≥66% inhibition)
[2]; [3]
  IC50: 0.0107 µM

## CC(=O)N(CCNC(=O)OC(C)(C)C)c1ccc(-c2ccc(C(=O)NCc3cccnc3)cn2)cc1 [Compound I-448, tert-butyl N-[2-[N-acetyl-4-[5-(3-pyridylmethylcarbamoyl)-2-pyridyl]anilino]ethyl]carbamate]
[1]
  NAMPT Inhibition Code: A (A = <33% inhibition)
[2]; [4]
  IC50: 0.691 µM

## CC(=O)N(CC(F)F)c1ccc(-c2ccc(C(=O)NCc3cccnc3C)cn2)cc1 [Compound I-449, 6-[4-[acetyl(2,2-difluoroethyl)amino]phenyl]-N-[(2-methyl-3-pyridyl)methyl]pyridine-3-carboxamide]
[1]
  NAMPT Inhibition Code: A (A = <33% inhibition)
[2]; [3]
  IC50: 5.18 µM

## CC(C)CN(C(=O)C(F)F)c1ccc(-c2ccc(C(=O)NCc3cccnc3)cn2)cc1 [Compound I-468, 6-[4-[(2,2-Difluoroacetyl)-isobutyl-amino]phenyl]-N-(3-pyridylmethyl)pyridine-3-carboxamide]
[1]
  NAMPT Inhibition Code: B (B = ≥33 to <66% inhibition)
[2]; [3]
  IC50: 0.0333 µM

## CCC(=O)N(C)c1ccc(-c2ccc(C(=O)NCc3ccc(OC)nc3)cn2)cc1C [Compound I-451]
[1]
  NAMPT Inhibition Code: B (B = ≥33 to <66% inhibition)
[2]; [3]
  IC50: 5.37 µM

## COC(=O)c1cc(-c2ccc(C(=O)NCc3cccnc3C)cn2)ccc1N(C)C(C)=O [Compound I-457, methyl 2-[acetyl(methyl)amino]-5-[5-[(2-methyl-3-pyridyl)methylcarbamoyl]-2-pyridyl]benzoate]
[1]
  NAMPT Inhibition Code: A (A = <33% inhibition)
[2]; [3]
  IC50: 9.85 µM

## CC(=O)N(C)c1ccc(-c2ccc(C(=O)NCc3cccnc3C)cn2)cc1C [Compound I-428, 6-[4-[acetyl(methyl)amino]-3-methyl-phenyl]-N-[(2-methyl-3-pyridyl)methyl]pyridine-3-carboxamide]
[2]; [4]
  IC50: 3.46 µM

## CCCN(C(C)=O)c1ccc(-c2ccc(C(=O)NCc3cccnc3)cn2)cc1Cl [Compound I-606, 6-[4-[Acetyl(propyl)amino]-3-chloro-phenyl]-N-(3-pyridylmethyl)pyridine-3-carboxamide]
[1]
  NAMPT Inhibition Code: C (C = ≥66% inhibition)
[2]; [3]
  IC50: 0.0211 µM

## CC(=O)N(CCC(F)F)c1ccc(-c2ccc(C(=O)NCc3cccnc3)cn2)cc1C [Compound I-639, 6-[4-[Acetyl(3,3-difluoropropyl)amino]-3-methyl-phenyl]-N-(3-pyridylmethyl)pyridine-3-carboxamide]
[1]
  NAMPT Inhibition Code: B (B = ≥33 to <66% inhibition)
[2]; [3]
  IC50: 0.133 µM

## CCC(=O)N(C)c1ccc(-c2ccc(C(=O)NCc3cccnc3C)cn2)cc1 [Compound I-392, 6-[4-[methyl(propanoyl)amino]phenyl]-N-[(2-methyl-3-pyridyl)methyl]pyridine-3-carboxamide]
[1]
  NAMPT Inhibition Code: A (A = <33% inhibition)
[2]; [4]
  IC50: 6.23 µM

## CCN(C(C)=O)c1ccc(-c2ccc(C(=O)NCc3cccnc3C)cn2)cc1C [Compound I-429, 6-[4-[acetyl(ethyl)amino]-3-methyl-phenyl]-N-[(2-methyl-3-pyridyl)methyl]pyridine-3-carboxamide]
[2]; [4]
  IC50: 4.03 µM

## CC(=O)N(c1ccc(-c2ccc(C(=O)NCc3cccnc3)cc2)cc1F)C(C)C [Compound I-630, 4-[4-[Acetyl(isopropyl)amino]-3-fluoro-phenyl]-N-(3-pyridylmethyl)benzamide]
[1]
  NAMPT Inhibition Code: C (C = ≥66% inhibition)
[2]; [3]
  IC50: 0.137 µM

## CCOC(=O)N(C)c1ccc(-c2ccc(C(=O)NCc3cccnc3)nc2)cc1 [Compound I-330, ethyl N-methyl-N-[4-[6-(3-pyridylmethylcarbamoyl)-3-pyridyl]phenyl]carbamate]
[1]
  NAMPT Inhibition Code: A (A = <33% inhibition)
[2]; [4]
  IC50: 6.08 µM

## CCC(=O)N(CCN)c1ccc(-c2ccc(C(=O)NCc3cccnc3)cn2)cc1C [Compound I-502, 6-[4-[2-aminoethyl(propanoyl)amino]-3-methyl-phenyl]-N-(3-pyridylmethyl)pyridine-3-carboxamide]
[1]
  NAMPT Inhibition Code: A (A = <33% inhibition)
[2]; [3]
  IC50: 0.224 µM

## CC(=O)Nc1ccc(-c2ccc(C(=O)N(C)Cc3cccnc3C)cn2)cc1C#N [Compound I-483, 6-(4-Acetamido-3-cyano-phenyl)-N-methyl-N-[(2-methyl-3-pyridyl)methyl]pyridine-3-carboxamide]
[1]
  NAMPT Inhibition Code: A (A = <33% inhibition)
[2]; [3]
  IC50: > 30 µM

## CCC(=O)N(C)c1ccc(-c2ccc(C(=O)Nc3nc(C)cs3)cn2)cc1 [Compound I-355, 6-[4-[methyl(propanoyl)amino]phenyl]-N-(4-methylthiazol-2-yl)pyridine-3-carboxamide]
[1]
  NAMPT Inhibition Code: A (A = <33% inhibition)
[2]; [4]
  IC50: 2.91 µM

## CCc1cc(-c2ccc(C(=O)NCc3cccnc3C)cn2)ccc1N(C)C(C)=O [Compound I-445, 6-[4-[acetyl(methyl)amino]-3-ethyl-phenyl]-N-[(2-methyl-3-pyridyl)methyl]pyridine-3-carboxamide]
[1]
  NAMPT Inhibition Code: A (A = <33% inhibition)
[2]; [4]
  IC50: 3.69 µM

## CC(=O)N(CC1CC(F)(F)C1)c1ccc(-c2ccc(C(=O)NCc3cccnc3C)cn2)cc1 [Compound I-517, 6-[4-[Acetyl-[(3,3-difluorocyclobutyl)methyl]amino]phenyl]-N-[(2-methyl-3-pyridyl)methyl]pyridine-3-carboxamide]
[1]
  NAMPT Inhibition Code: A (A = <33% inhibition)
[2]; [3]
  IC50: 2.44 µM

## CCC(=O)N(C)c1ccc(-c2ccc(C(=O)NCc3cccnc3C)cc2)cc1Cl [Compound I-460, 4-[3-chloro-4-[methyl(propanoyl)amino]phenyl]-N-[(2-methyl-3-pyridyl)methyl]benzamide]
[1]
  NAMPT Inhibition Code: A (A = <33% inhibition)
[2]; [3]
  IC50: > 0.694 µM

## CC(=O)N(C)Cc1ccc(-c2ccc(C(=O)NCc3cccnc3)nc2)cc1 [Compound I-319, 5-[4-[[acetyl(methyl)amino]methyl]phenyl]-N-(3-pyridylmethyl)pyridine-2-carboxamide]
[2]; [4]
  IC50: 10 µM

## CCCN(C(C)=O)c1ccc(-c2ccc(C(=O)NCc3cccnc3C)cn2)cc1C [Compound I-446, 6-[4-[acetyl(propyl)amino]-3-methyl-phenyl]-N-[(2-methyl-3-pyridyl)methyl]pyridine-3-carboxamide]
[1]
  NAMPT Inhibition Code: A (A = <33% inhibition)
[2]; [4]
  IC50: 2.17 µM

## CC(=O)N(C)c1ccc(-c2ccc(C(=O)NCc3cccnc3)cn2)cc1C [Compound I-425, 6-[4-[acetyl(methyl)amino]-3-methyl-phenyl]-N-(3-pyridylmethyl)pyridine-3-carboxamide]
[1]
  NAMPT Inhibition Code: A (A = <33% inhibition)
[2]; [4]
  IC50: 1.67 µM

## COC(=O)NCCN(C(C)=O)c1ccc(-c2ccc(C(=O)NCc3cccnc3)cn2)cc1 [Compound I-466, Methyl N-[2-[N-acetyl-4-[5-(3-pyridylmethylcarbamoyl)-2-pyridyl]anilino]ethyl]carbamate]
[1]
  NAMPT Inhibition Code: A (A = <33% inhibition)
[2]; [3]
  IC50: 0.871 µM

## CCC(=O)Nc1ccc(-c2ccc(C(=O)NCc3cccnc3)cn2)cc1 [Compound I-354, 6-[4-(propanoylamino)phenyl]-N-(3-pyridylmethyl)pyridine-3-carboxamide]
[1]
  NAMPT Inhibition Code: A (A = <33% inhibition)
[2]; [4]
  IC50: > 30 µM

## CC(=O)N(CC1CC1)c1ccc(-c2ccc(C(=O)NCc3ccc(F)nc3)cn2)cc1Cl [Compound I-696, 6-[4-[Acetyl(cyclopropylmethyl)amino]-3-chloro-phenyl]-N-[(6-fluoro-3-pyridyl)methyl]pyridine-3-carboxamide]
[1]
  NAMPT Inhibition Code: C (C = ≥66% inhibition)

## CC(=O)N(CC1CC1)c1ccc(-c2ccc(C(=O)NCc3ccc(C)nc3)cn2)cc1Cl [Compound I-697, 6-[4-[Acetyl(cyclopropylmethyl)amino]-3-chloro-phenyl]-N-[(6-methyl-3-pyridyl)methyl]pyridine-3-carboxamide]
[1]
  NAMPT Inhibition Code: C (C = ≥66% inhibition)

## CC(=O)N(CC1CC1)c1ccc(-c2ccc(C(=O)Nc3cnc4[nH]ncc4c3)cn2)cc1Cl [Compound I-693, 6-[4-[Acetyl(cyclopropylmethyl)amino]-3-chloro-phenyl]-N-(1H-pyrazolo[3,4-b]pyridin-5-yl)pyridine-3-carboxamide]
[1]
  NAMPT Inhibition Code: B (B = ≥33 to <66% inhibition)

## CC(=O)N(CC1CC1)c1ccc(-c2ccc(C(=O)NCc3ccccn3)cn2)cc1Cl [Compound I-698, 6-[4-[Acetyl(cyclopropylmethyl)amino]-3-chloro-phenyl]-N-(2-pyridylmethyl)pyridine-3-carboxamide]
[1]
  NAMPT Inhibition Code: A (A = <33% inhibition)

## CC(=O)N(C)c1ccc(-c2ccc(C(=O)NCc3cccnc3F)cn2)cc1C [Compound I-436, 6-[4-[acetyl(methyl)amino]-3-methyl-phenyl]-N-[(2-fluoro-3-pyridyl)methyl]pyridine-3-carboxamide]
[2]; [4]
  IC50: 13.8 µM
